From US20140086977A1, “TIGHT JUNCTIONS MODULATORS” (THE UNIVERSITY OF MANCHESTER, priority 2011, published 2014)
“Also recorded” adds a separate entry of the source.

Assays:
[1] = tested on: Normal human epidermal keratinocytes (NHEK); assay: TEER in NHEK treated with plant polyphenols; assay type: cell-based; details: for Effect on TEER at day four vs untreated control: 100 μM myricetin or Kaempferol, quercetin concentration not stated, Mann Whitney U test
Procedure: Normal human epidermal keratinocytes (NHEK) were purchased from Promocell (Heidelberg, Germany) and grown on Thincerts™ in proprietary medium containing 0.06 mM calcium chloride. ‘Thincerts’ are small chambers containing a filter on which the cells are grown. The Thincert™ is housed within a conventional 12 well tissue culture plate. This arrangement allows treatment of the cells from either the basal or apical side.
When the cells were confluent, the medium was replaced with new medium but containing 1.8 mM calcium chloride. This induces tight junction formation in NHEK. In experiments where plant polyphenols were tested, a known volume of the plant polyphenol (dissolved in vehicle at a known concentration) was added to both apical and basal chambers of the Thincert™ at the same time as the medium was replaced. In this experiment the plant polyphenols quercetin, Myricetin and Kaempferol were tested.
Tight junctions form over 4 days and this was monitored by measuring the transepithelial electrical resistance (TEER) using an EVOM (world precision instruments). TEER was measured every 24 hours post addition of the test polyphenols and the TEER of control untreated cell monolayers was compared to that of treated cell monolayers.
The methodology set out in Example 6 was repeated, using quercetin at different concentrations. The results are shown in FIG. 8 in which the first bar represents the results for control—untreated cells, the second bar represents the results for cells treated with 100 μM quercetin and the third bar represents the results for cells treated with 10 μM quercetin (see key below). The y-axis represents TEER at 4 days (Ohms.cm^2).

[2] = tested on: claudins 1 and 4, occludin and ZO-1 mRNA; assay: Real-time PCR of TJ gene message levels in NHEK; assay type: cell-based, human; details: 25 ug/ml, 48 hours, vs non-treated keratinocytes
Procedure: Normal primary human keratinocytes (NHEK) were grown in proprietary medium containing 0.6 mM calcium chloride. When the cells reached confluence they were placed in medium containing […] calcium chloride (calcium switch) and 25 ug/ml cis-UCA was added. Cells were incubated for 48 hours and message levels for the TJ genes claudins 1 and 4, occludin and ZO-1 were quantified using real-time PCR using non-treated keratinocytes as a control (FIG. 3).

claudin 1 = assay: Claudin 1 protein levels in NHEK by immunoblot; assay type: cell-based, human; details: for Effect on claudin 1 protein levels: 24-96 hours post treatment, immunoblot
Procedure: Normal primary human keratinocytes (NHEK) were grown in proprietary medium containing 0.6 mM calcium chloride. When the cells reached confluence they were placed in medium containing 1.8 mM calcium chloride (calcium switch) and either cis-UCA, irradiated trans-UCA, unirradiated trans-UCA or control medium. Cells were the incubated for 96 hours during which time TJs form. At 24, 48, 72 or 96 hours post treatment, cells were harvested and claudin 1 levels analysed by immunoblot.
NHEK (growing as described above) were treated with different concentrations of cis-UCA for 48 hours after which claudin 1 levels were examined using immunoblotting.
(§1) Exposure of human skin to solar simulated ultraviolet radiation (UVR) transiently impairs skin barrier function (SBF) which recovers over a period of 2-14 days. […] Trans-urocanic acid (trans-UCA) is a major epidermal chromophore located in the stratum corneum and exposure of human skin to UVR photoisomerises trans-UCA to cis-UCA. In a previous Affymetrix study, the Cld-1 encoding gene, CLDN1, was listed as one of several markers induced by cis- but not trans-UCA, in normal human epidermal keratinocytes (NHEK) (Kaneko et al, J Immunol 2008, 181, 217-24). We therefore examined UCA isomer-dependent changes in Cld-1 protein expression (assessed by immunoblotting) and TJ function (assessed as transepithelial electrical resistance; TEER) in differentiated NHEK in vitro.

[3] = tested on: Normal primary human keratinocytes (NHEK); assay: Transepithelial electrical resistance (TEER) in NHEK after calcium switch, UCA isomers; assay type: cell-based; details: for Effect on TEER: differentiated NHEK vs untreated cells
Text: Transepithelial electrical resistance (TEER) measurements are used in epithelial biology as a marker of TJ integrity. Electrical resistance is a measure of how easily ions can pass through a particular transport route. The higher the resistance the harder it is for ions to pass. Whilst the TEER of a cell monolayer is a function of both transcellular and paracellular transport routes, the value of TEER is, however, dominated by the contribution from the paracellular route. TEER of monolayers can be measured using an Epithelial Voltmeter (for example EVOM from WPI Ltd). This instrument passes a current across a monolayer of cells and calculates the resistance according to Ohm's law (V=IR, where V is potential difference, I is current and R is resistance). Therefore increased TEER means […] TJ function. Preferably TEER measurements are carried out at room temperature.
Normal primary human keratinocytes (NHEK) were grown on Thincerts™ in medium containing 0.6 mM calcium until the cells were confluent. TJ formation was the induced by calcium switch and 25 ug/ml cis-UCA was added to the cells which were incubated for 96 hours and the transepithelial electrical resistance (TEER) measured every 24 hours post calcium switch.
as §1

In the case of `O=c1c(O)c(-c2ccc(O)cc2)oc2cc(O)cc(O)c12` [Kaempferol], the “Time to barrier formation” value ([1]; 100 μM) is reported as “reduces” and the “Effect on TEER at day four vs untreated control” value (from here on “Effect … vs untreated control”) [1] is reported as “increases”.

For `O=c1c(O)c(-c2cc(O)c(O)c(O)c2)oc2cc(O)cc(O)c12` [Myricetin], the “Effect … vs untreated control” value [1] was “significantly increase”.

`O=C(O)/C=C\c1c[nH]cn1` [cis-UCA, cis-urocanic acid] was tested, and the “Levels of mRNA for claudins 1, 4, occludin and ZO-1” value [2] was “increases”, the “Effect on claudin 1 protein levels” value (claudin 1) was “time dependent increase” and the “Effect on claudin 1 protein levels” value (claudin 1; listed as Cis-UCA) was “time and concentration dependent increase”. The “Dose dependence of claudin 1 protein levels” value (claudin 1; 48 hours, greatest at 25 ug/ml) was “dose dependent increase”, the “Increase in Cld-1 protein” value (claudin 1; maximal 48 h post-treatment with 25 μg/ml, n=4, p=0.02) was ~3 fold and the “TEER higher than in untreated cells” value ([3]; 25 ug/ml cis-UCA, up to 96 hours post calcium switch) was “approximately 150 ohms.cm^2”. The “Effect on TEER” value [3] was “higher” and the “TEER higher than in untreated cells” value ([3]; differentiated NHEK, n=6, p=0.004) was ~150 ohms/cm^2.

With `O=c1c(O)c(-c2ccc(O)c(O)c2)oc2cc(O)cc(O)c12` [quercetin] the “Effect … vs untreated control” value [1] was “significantly increase” and the “Dose dependence of TEER at 4 days” value ([1]; 100 μM vs 10 μM quercetin) was “higher quantities of quercetin have a more beneficial effect”.

For `O=C(O)/C=C/c1cnc[nH]1` [trans-UCA, trans-urocanic acid, reference compound], the “Effect on claudin 1 protein levels” value (claudin 1) was “no effect”, the “Effect on claudin 1 protein levels” value (claudin 1; listed as unirradiated trans-UCA) was “does not; also recorded: no effect” and the “Effect on TEER” value [3] was “no effect”.
